Test results: PubChem BioAssay (NCI)
Where “and” joins values, the source holds several entries; their conditions need not be identical. Equal values may be shown once.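 48-hour exposure; five concentrations; linearly interpolated endpoints. Abbreviation: GI50, concentration required for 50% inhibition of growth. TGI marks complete inhibition of growth.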

Assays:
Assay in all cases: NCI anticancer screen, dose series, 48 h
U251 CNS = test system: U251 CNS
SNB-75 CNS = test system: SNB-75 CNS
SF-268 CNS = test system: SF-268 CNS
NCI/ADR-RES ovarian = test system: NCI/ADR-RES ovarian
IGROV1 ovarian = test system: IGROV1 ovarian
K-562 leukemia = test system: K-562 leukemia
CCRF-CEM leukemia = test system: CCRF-CEM leukemia
UACC-62 melanoma = test system: UACC-62 melanoma
HCT-116 colon = test system: HCT-116 colon
SK-MEL-2 melanoma = test system: SK-MEL-2 melanoma

CS(=O)(=O)c1ccc(C(=O)Nc2ccc(Cl)c(-c3ccccn3)c2)c(Cl)c1
TGI (U251 CNS): > 100 µM and 15.8 µM | GI50 (SNB-75 CNS): 14.4 µM and 3.14 µM | TGI (SNB-75 CNS): > 100 µM and 79 µM | TGI (SF-268 CNS): > 100 µM and 66.5 µM | TGI (NCI/ADR-RES ovarian): > 100 µM and 25.7 µM | TGI (IGROV1 ovarian): > 100 µM | TGI (K-562 leukemia): > 100 µM and 45.7 µM | TGI (CCRF-CEM leukemia): > 100 µM

C[Si](C)(C)OC1(C#N)C2C3CC4C2C(=O)C2C4C3C21 (configuration not stated)
TGI (U251 CNS): > 100 µM | TGI (SNB-75 CNS): > 100 µM | TGI (SF-268 CNS): > 100 µM | TGI (UACC-62 melanoma): > 100 µM | TGI (HCT-116 colon): > 100 µM | TGI (SK-MEL-2 melanoma): > 100 µM | TGI (IGROV1 ovarian): > 100 µM | TGI (K-562 leukemia): > 100 µM | TGI (CCRF-CEM leukemia): > 100 µM

CCCCCCCCCCCCCCCCCC(=O)OCC(COC1OC(COP(=O)(O)O)C(O)C(O)C1O)OC(=O)CCCCCCCCCCCCCCCCC (configuration not stated)
TGI (U251 CNS): 14.7 µM | TGI (SNB-75 CNS): 11.5 µM | TGI (SF-268 CNS): 17 µM | TGI (UACC-62 melanoma): 16.3 µM | TGI (NCI/ADR-RES ovarian): 18.2 µM | TGI (HCT-116 colon): 16.2 µM | TGI (IGROV1 ovarian): 10.5 µM | TGI (K-562 leukemia): 18.7 µM | TGI (CCRF-CEM leukemia): 14.4 µM

CCC1CN2CCc3cc(OC)c(OC)cc3C2CC1CC1c2cc(OC)c(OC)cc2CCN1C(=O)C1CCCN1C(=O)OCc1ccccc1 (configuration not stated)
TGI (U251 CNS): 28.3 µM | TGI (SNB-75 CNS): 28.3 µM | TGI (SF-268 CNS): 31.9 µM | TGI (UACC-62 melanoma): 29.7 µM | TGI (HCT-116 colon): 25.8 µM | TGI (SK-MEL-2 melanoma): 33.6 µM | TGI (IGROV1 ovarian): 33.4 µM | TGI (K-562 leukemia): 36 µM

O=C1c2ccccc2-c2c1c1ccc([N+](=O)[O-])cc1c(=O)n2CCCBr
GI50 (U251 CNS): > 100 µM | TGI (U251 CNS): > 100 µM | GI50 (SNB-75 CNS): > 100 µM | TGI (SNB-75 CNS): > 100 µM | GI50 (SF-268 CNS): > 100 µM | TGI (SF-268 CNS): > 100 µM | GI50 (UACC-62 melanoma): > 100 µM | TGI (UACC-62 melanoma): > 100 µM | GI50 (HCT-116 colon): 3.43 µM | TGI (HCT-116 colon): > 100 µM | GI50 (SK-MEL-2 melanoma): > 100 µM | TGI (SK-MEL-2 melanoma): > 100 µM | GI50 (IGROV1 ovarian): > 100 µM | TGI (IGROV1 ovarian): > 100 µM | GI50 (K-562 leukemia): > 100 µM | TGI (K-562 leukemia): > 100 µM

N#CC(C(=O)CCC(=O)Nc1cccc(Cl)c1)c1ccccc1 (configuration not stated)
TGI (U251 CNS): > 100 µM | TGI (SNB-75 CNS): > 100 µM | TGI (SF-268 CNS): > 100 µM | TGI (UACC-62 melanoma): > 100 µM | TGI (HCT-116 colon): > 100 µM | TGI (SK-MEL-2 melanoma): > 100 µM | TGI (IGROV1 ovarian): > 100 µM | TGI (K-562 leukemia): > 100 µM | TGI (CCRF-CEM leukemia): > 100 µM

CC(=O)OC1CCn2nnc(CO[Si](C)(C)C(C)(C)C)c21 (configuration not stated)
TGI (U251 CNS): > 100 µM | TGI (SNB-75 CNS): > 100 µM | TGI (HCT-116 colon): > 100 µM | TGI (SK-MEL-2 melanoma): > 100 µM | TGI (IGROV1 ovarian): > 100 µM | TGI (K-562 leukemia): > 100 µM

CC(C)(C)c1n[nH]c(=S)n(/N=C/c2ccc(F)c(Oc3ccccc3)c2)c1=O
GI50 (U251 CNS): 39.2 µM | TGI (U251 CNS): > 100 µM | GI50 (SNB-75 CNS): 32.5 µM | TGI (SNB-75 CNS): > 100 µM | GI50 (SF-268 CNS): 35.9 µM | TGI (SF-268 CNS): > 100 µM | GI50 (UACC-62 melanoma): 38.2 µM | TGI (UACC-62 melanoma): > 100 µM | GI50 (NCI/ADR-RES ovarian): 35.1 µM | TGI (NCI/ADR-RES ovarian): > 100 µM | GI50 (HCT-116 colon): > 100 µM | TGI (HCT-116 colon): > 100 µM | GI50 (IGROV1 ovarian): 35.9 µM | TGI (IGROV1 ovarian): > 100 µM | GI50 (K-562 leukemia): 42.1 µM | TGI (K-562 leukemia): > 100 µM | GI50 (CCRF-CEM leukemia): 32.7 µM | TGI (CCRF-CEM leukemia): > 100 µM

Cc1cc2c(C)n(Cc3ccc(Cl)cc3Cl)nc2c(C#N)c1C
TGI (U251 CNS): > 61.9 µM | TGI (SNB-75 CNS): 62 µM | TGI (SF-268 CNS): > 100 µM | TGI (UACC-62 melanoma): > 100 µM | TGI (HCT-116 colon): > 100 µM | TGI (SK-MEL-2 melanoma): > 100 µM | TGI (IGROV1 ovarian): > 100 µM | TGI (K-562 leukemia): > 100 µM | TGI (CCRF-CEM leukemia): > 100 µM

CCOC(=O)C(=O)Nc1c(CC)cccc1C(C)C
TGI (U251 CNS): > 100 µM | TGI (SNB-75 CNS): > 100 µM | TGI (SF-268 CNS): > 100 µM | TGI (UACC-62 melanoma): > 100 µM | TGI (HCT-116 colon): > 100 µM | TGI (SK-MEL-2 melanoma): > 100 µM | TGI (IGROV1 ovarian): > 100 µM

CCOC(=O)C(C)(c1cn(C)c2ccccc12)c1cn(C)c2ccccc12
TGI (U251 CNS): > 100 µM | TGI (SNB-75 CNS): 51.9 µM | TGI (UACC-62 melanoma): > 100 µM | TGI (HCT-116 colon): > 100 µM | TGI (SK-MEL-2 melanoma): > 100 µM | TGI (IGROV1 ovarian): > 100 µM | TGI (K-562 leukemia): > 100 µM | TGI (CCRF-CEM leukemia): > 100 µM

CCOC(=O)C1Oc2ccc([N+](=O)[O-])c3c2C1(O)CCC3 (configuration not stated)
TGI (U251 CNS): > 100 µM | TGI (SNB-75 CNS): > 100 µM | TGI (SF-268 CNS): > 100 µM | TGI (UACC-62 melanoma): > 100 µM | TGI (SK-MEL-2 melanoma): > 100 µM | TGI (IGROV1 ovarian): > 100 µM | TGI (K-562 leukemia): > 100 µM | TGI (CCRF-CEM leukemia): > 100 µM

O=C(O)C1(P(=O)(O)O)CC1
TGI (U251 CNS): > 100 µM | TGI (SNB-75 CNS): > 100 µM | TGI (SF-268 CNS): > 100 µM | TGI (UACC-62 melanoma): > 100 µM | TGI (HCT-116 colon): > 100 µM | TGI (SK-MEL-2 melanoma): > 100 µM | TGI (IGROV1 ovarian): > 100 µM | TGI (K-562 leukemia): > 100 µM | TGI (CCRF-CEM leukemia): > 100 µM

O=C1C(=O)N(c2ccc(Cl)c(Cl)c2)C(=O)C(=O)C1c1nc2ccccc2s1
TGI (U251 CNS): > 100 µM | TGI (SNB-75 CNS): > 100 µM | TGI (SF-268 CNS): > 100 µM | TGI (UACC-62 melanoma): > 100 µM | TGI (HCT-116 colon): > 100 µM | TGI (SK-MEL-2 melanoma): > 100 µM | TGI (IGROV1 ovarian): > 100 µM | TGI (CCRF-CEM leukemia): > 100 µM

COc1ccc(C2CC(c3cc(OC)c(OC)c(OC)c3)=NN2C(C)=O)cc1OCC(=O)Nc1nc2ccc(C(F)(F)F)cc2s1 (configuration not stated)
GI50 (U251 CNS): 3.08 µM | TGI (U251 CNS): 9.9 µM | GI50 (SNB-75 CNS): 1.55 µM | TGI (SNB-75 CNS): 4.78 µM | GI50 (SF-268 CNS): 3.84 µM | TGI (SF-268 CNS): 29.5 µM | GI50 (UACC-62 melanoma): 3.77 µM | TGI (UACC-62 melanoma): > 100 µM | GI50 (NCI/ADR-RES ovarian): 3.13 µM | TGI (NCI/ADR-RES ovarian): > 100 µM | GI50 (SK-MEL-2 melanoma): 3.08 µM | TGI (SK-MEL-2 melanoma): 20.4 µM | GI50 (IGROV1 ovarian): 5.3 µM | TGI (IGROV1 ovarian): > 100 µM

COC1CC(OS(=O)(=O)c2ccc(C)cc2)C(OC(=O)c2ccccc2)C(C)O1 (configuration not stated)
TGI (U251 CNS): > 10 µM | GI50 (SNB-75 CNS): > 10 µM | TGI (SNB-75 CNS): > 100 µM | TGI (SF-268 CNS): > 100 µM | TGI (UACC-62 melanoma): > 100 µM | TGI (HCT-116 colon): > 10 µM | GI50 (SK-MEL-2 melanoma): > 100 µM | TGI (SK-MEL-2 melanoma): > 100 µM | GI50 (IGROV1 ovarian): > 100 µM | TGI (IGROV1 ovarian): > 100 µM | GI50 (K-562 leukemia): > 100 µM | TGI (K-562 leukemia): > 100 µM | GI50 (CCRF-CEM leukemia): > 100 µM | TGI (CCRF-CEM leukemia): > 100 µM

O=C(NN1C(=O)CSC12CCCCC2)c1[nH]c2ccc(F)cc2c1-c1ccccc1
GI50 (U251 CNS): 18.2 µM | TGI (U251 CNS): 39.2 µM | GI50 (SNB-75 CNS): 18.5 µM | TGI (SNB-75 CNS): 36.2 µM | GI50 (SF-268 CNS): 22.7 µM | TGI (SF-268 CNS): 59.6 µM | GI50 (UACC-62 melanoma): 15.2 µM | TGI (UACC-62 melanoma): 54.7 µM | GI50 (HCT-116 colon): 16.7 µM | TGI (HCT-116 colon): 31.5 µM | GI50 (SK-MEL-2 melanoma): 34.6 µM | TGI (SK-MEL-2 melanoma): > 100 µM | GI50 (IGROV1 ovarian): 14.4 µM | TGI (IGROV1 ovarian): 32.9 µM | GI50 (K-562 leukemia): 21.3 µM | TGI (K-562 leukemia): 52.7 µM | GI50 (CCRF-CEM leukemia): 29.7 µM | TGI (CCRF-CEM leukemia): 96.7 µM

O=S(=O)(c1ccccc1)C(CN1CCCCC1)S(=O)(=O)c1ccccc1
TGI (U251 CNS): > 100 µM | TGI (SNB-75 CNS): > 100 µM | TGI (SF-268 CNS): > 100 µM | TGI (UACC-62 melanoma): > 100 µM | TGI (SK-MEL-2 melanoma): > 100 µM | TGI (IGROV1 ovarian): > 100 µM | TGI (K-562 leukemia): > 100 µM | TGI (CCRF-CEM leukemia): > 100 µM

Cc1ccc(-c2cc(-c3ccc(C)cc3)nc(NCCNc3ccnc4cc(Cl)ccc34)n2)cc1
GI50 (U251 CNS): 1.72 µM | TGI (U251 CNS): 3.36 µM | GI50 (SNB-75 CNS): 1.48 µM | TGI (SNB-75 CNS): 3.02 µM | GI50 (SF-268 CNS): 1.72 µM | TGI (SF-268 CNS): 3.54 µM | GI50 (UACC-62 melanoma): 1.77 µM | TGI (UACC-62 melanoma): 3.38 µM | GI50 (HCT-116 colon): 1.6 µM | TGI (HCT-116 colon): 3.44 µM | GI50 (SK-MEL-2 melanoma): 1.9 µM | TGI (SK-MEL-2 melanoma): 3.63 µM | GI50 (IGROV1 ovarian): 1.52 µM | TGI (IGROV1 ovarian): 3.16 µM | GI50 (K-562 leukemia): 1.82 µM | TGI (K-562 leukemia): 4.5 µM
